The text below walks through data of patent US9884868B2, “TGF-beta inhibitors” (Rigel Pharmaceuticals, Inc., priority 2015, dated 2018).

In the assay the target is HIS-TGF-βR1 T204D (Homo sapiens (Human), UniProt P36897, T204D). Put plainly: HTRF probe displacement assay with HIS-TGF-βR1 T204D. A general note: Time-resolved FRET reads energy transfer from a long-lived donor to a nearby acceptor.
Setting [1] is: read-out: TGFbr1 IC50, HTRF probe displacement, 1 nM HIS-TGF-βR1 T204D, 1 hour at room temperature.

Where two headings read alike, the source gives them in different places.

Sequence of HIS-TGF-βR1 T204D (P36897 34-503 T204D): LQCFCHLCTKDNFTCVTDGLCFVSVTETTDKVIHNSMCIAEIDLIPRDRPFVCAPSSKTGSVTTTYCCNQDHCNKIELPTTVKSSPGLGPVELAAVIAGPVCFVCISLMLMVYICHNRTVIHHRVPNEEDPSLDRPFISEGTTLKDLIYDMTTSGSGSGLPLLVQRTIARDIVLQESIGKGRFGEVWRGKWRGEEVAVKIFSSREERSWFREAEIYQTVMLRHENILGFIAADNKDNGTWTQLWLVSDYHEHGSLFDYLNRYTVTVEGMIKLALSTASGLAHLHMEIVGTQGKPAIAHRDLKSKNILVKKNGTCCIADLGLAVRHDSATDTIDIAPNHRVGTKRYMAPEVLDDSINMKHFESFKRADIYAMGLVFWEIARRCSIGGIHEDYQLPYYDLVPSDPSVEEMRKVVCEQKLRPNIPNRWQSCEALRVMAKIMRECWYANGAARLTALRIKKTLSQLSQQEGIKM

As usually defined, the IC50 is the point on the concentration scale where inhibition reaches its midpoint. For the compound `N#Cc1cnc2ccc(-c3c(-c4ccc5c(c4)OCO5)ncn3CC(F)F)nn12` [247′, 6-(4-(benzo[d][1,3]dioxol-5-yl)-1-(2,2-difluoroethyl)-1H-imidazol-5-yl)imidazo[1,2-b]pyridazine-3-carbonitrile], under setting [1], the IC50 worked out at 14.3 nM.

`N#Cc1cnc2ccc(-c3c(-c4ccc(F)cc4)ncn3CCC(F)(F)F)nn12` [4′, 6-(4-(4-fluorophenyl)-1-(3,3,3-trifluoropropyl)-1H-imidazol-5-yl)imidazo[1,2-b]pyridazine-3-carbonitrile] displayed an IC50 of 6.8 nM.

For `CC(C)(O)CCn1cnc(-c2ccc(F)c(Cl)c2)c1-c1ccc2ncc(C#N)n2n1` [37′, 6-(4-(3-chloro-4-fluorophenyl)-1-(3-hydroxy-3-methylbutyl)-1H-imidazol-5-yl)imidazo[1,2-b]pyridazine-3-carbonitrile], the IC50 under setting [1] was found to be 2.5 nM.

With `N#Cc1cnc2ccc(-c3c(-c4ccc(F)c(Cl)c4)ncn3C3CC3)nn12` [36′, 6-(4-(3-chloro-4-fluorophenyl)-1-cyclopropyl-1H-imidazol-5-yl)imidazo[1,2-b]pyridazine-3-carbonitrile], the concentration for half-maximal inhibition (IC50) under setting [1] worked out at 1.3 nM.

With `CC(C)(O)c1cnc2ccc(-c3c(-c4ccc(F)cc4)ncn3CC(F)F)cn12` [Example 278′], the IC50 under setting [1] was 184 nM.

In the case of `Fc1ccc(-c2ncn(CC(F)F)c2-c2ccc3ncc(-c4cnco4)n3n2)cc1` [Example 216′, 5-(6-(1-(2,2-difluoroethyl)-4-(4-fluorophenyl)-1H-imidazol-5-yl)imidazo[1,2-b]pyridazin-3-yl)oxazole], the IC50 under setting [1] was 0.9 nM.

As for `N#Cc1cnc2ccc(-c3[nH]cnc3-c3ccc(F)cc3)nn12` [18′, 6-(4-(4-fluorophenyl)-1H-imidazol-5-yl)imidazo[1,2-b]pyridazine-3-carbonitrile], the half-maximal inhibitory concentration (IC50) under setting [1] turned out to be 10.5 nM.

As for `N#Cc1cnc2ccc(-c3c(-c4ccc(F)c(Cl)c4)ncn3CCCl)nn12` [60′, 6-(4-(3-chloro-4-fluorophenyl)-1-(2-chloroethyl)-1H-imidazol-5-yl)imidazo[1,2-b]pyridazine-3-carbonitrile], under setting [1], the IC50 was determined as 0.9 nM.

As for `CONC(=O)c1cnc2ccc(-c3c(-c4ccc(F)cc4)ncn3CC(F)F)nn12` [209′, 6-(1-(2,2-difluoroethyl)-4-(4-fluorophenyl)-1H-imidazol-5-yl)-N-methoxyimidazo[1,2-b]pyridazine-3-carboxamide], the IC50 under setting [1] came to 0.7 nM.

As to `NC(=O)c1cnc2ccc(-c3c(-c4ccc(F)cc4)ncn3CC(F)F)cn12` [230′, 6-(1-(2,2-difluoroethyl)-4-(4-fluorophenyl)-1H-imidazol-5-yl)imidazo[1,2-a]pyridine-3-carboxamide], under setting [1], the 50% inhibitory concentration (IC50) came out at 1.7 nM.

For the compound `N#Cc1cnc2ccc(-c3c(-c4cccc(O)c4)ncn3CC(F)F)nn12` [249′, 6-(1-(2,2-difluoroethyl)-4-(3-hydroxyphenyl)-1H-imidazol-5-yl)imidazo[1,2-b]pyridazine-3-carbonitrile], under setting [1], the IC50 turned out to be 2.2 nM.

In the case of `Fc1ccc(-c2ncn(C3CC(F)(F)C3)c2-c2ccc3nccn3c2)cc1Cl` [184′, 6-(4-(3-chloro-4-fluorophenyl)-1-(3,3-difluorocyclobutyl)-1H-imidazol-5-yl)imidazo[1,2-a]pyridine], the IC50 under setting [1] was 54.5 nM.

For the compound `Fc1ccc(-c2ncn(CC(F)F)c2-c2ccn3ncnc3c2)cc1` [Example 282′, 7-(1-(2,2-difluoroethyl)-4-(4-fluorophenyl)-1H-imidazol-5-yl)-[1,2,4]triazolo[1,5-a]pyridine], the IC50 under setting [1] was found to be 12.9 nM.

As for `N#Cc1cnc2ccc(-c3c(-c4ccc(F)c(Cl)c4)ncn3C[C@@H]3CCCO3)nn12` [42′, (S)-6-(4-(3-chloro-4-fluorophenyl)-1-((tetrahydrofuran-2-yl)methyl)-1H-imidazol-5-yl)imidazo[1,2-b]pyridazine-3-carbonitrile], the IC50 under setting [1] was determined as 1.8 nM.

`CC(C)CCn1cnc(-c2ccc(F)c(Cl)c2)c1-c1ccc2ncc(C(N)=O)n2n1` [148′, 6-(4-(3-chloro-4-fluorophenyl)-1-isopentyl-1H-imidazol-5-yl)imidazo[1,2-b]pyridazine-3-carboxamide]: under setting [1], the IC50 was determined as 1.1 nM.
